ChEMBL document CHEMBL1240356, “Efficacy profiles of daptomycin for treatment of invasive and noninvasive pulmonary infections with Streptococcus pneumoniae” (2010)
The source made the active and inactive calls. The rule behind the calls is not given here.

Legend:
Streptococcus pneumoniae [1] = experiment: Antibacterial activity against low dose 5 x 10^6 CFU Streptococcus pneumoniae serotype 2 infected in semitherapeutic C57BL/6 mouse model at 6 mg/kg, ip over a period of 14 days; type: functional, organism-based; design: dose 6 mg/kg
Streptococcus pneumoniae [2] = experiment: Antibacterial activity against high dose 1.5 x 10^7 CFU Streptococcus pneumoniae serotype 19 infected in semitherapeutic C57BL/6 mouse model assessed as bacterial count in lung at 6 mg/kg, ip measured after 2 days post infection; type: functional; conditions: route intraperitoneal
Streptococcus pneumoniae [3] = experiment: Antibacterial activity against low dose 5 x 10^6 CFU Streptococcus pneumoniae serotype 2 infected in semitherapeutic C57BL/6 mouse model assessed as reduction of bacteremia at 6 mg/kg, ip measured after 10 day post infection; type: functional, organism-based; design: dose 6 mg/kg
Streptococcus pneumoniae [4] = experiment: Antibacterial activity against low dose 5 x 10^6 CFU Streptococcus pneumoniae serotype 19 infected in semitherapeutic C57BL/6 mouse model assessed as bacterial count in lung at 6 mg/kg, ip measured after 2 days post infection; type: functional; conditions: route intraperitoneal
Streptococcus pneumoniae [5] = experiment: Antibacterial activity against high dose 1.5 x 10^7 CFU Streptococcus pneumoniae serotype 2 infected in semitherapeutic C57BL/6 mouse model assessed as bacterial count in lung at 6 mg/kg, ip measured after 5 day post infection; type: functional; conditions: route intraperitoneal
Streptococcus pneumoniae [6] = experiment: Antibacterial activity against high dose 1.5 x 10^7 CFU Streptococcus pneumoniae serotype 19 infected in semitherapeutic C57BL/6 mouse model assessed as bacteremic mice at 6 mg/kg, ip measured after 4 days post infection; type: functional, organism-based; design: dose 6 mg/kg
Streptococcus pneumoniae [7] = experiment: Antibacterial activity against high dose 1.5 x 10^7 CFU Streptococcus pneumoniae serotype 2 infected in semitherapeutic C57BL/6 mouse model assessed as bacterial count in lung at 6 mg/kg, ip measured after 3 days post infection; type: functional; conditions: route intraperitoneal
Streptococcus pneumoniae [8] = experiment: Antibacterial activity against 1.5 x 10^7 CFU Streptococcus pneumoniae serotype 2 infected in therapeutic C57BL/6 mouse model assessed as survival rate at 6 mg/kg, ip qd beginning 2 days post infection measured after 3 days post infection; type: functional; conditions: route intraperitoneal
Streptococcus pneumoniae [9] = experiment: Antibacterial activity against 5 x 10^6 CFU Streptococcus pneumoniae serotype 2 infected in semitherapeutic C57BL/6 mouse model assessed as bacterial count in blood at 6 mg/kg, ip measured after 1 day post infection; type: functional; conditions: route intraperitoneal
Streptococcus pneumoniae [10] = experiment: Antibacterial activity against low dose 5 x 10^6 CFU Streptococcus pneumoniae serotype 19 infected in semitherapeutic C57BL/6 mouse model assessed as bacteremic mouse at 6 mg/kg, ip measured after 2 days post infection; type: functional, organism-based; design: dose 6 mg/kg
Streptococcus pneumoniae [11] = experiment: Antibacterial activity against high dose 1.5 x 10^7 CFU Streptococcus pneumoniae serotype 2 infected in semitherapeutic C57BL/6 mouse model assessed as bacterial count in lung at 6 mg/kg, ip measured after 10 day post infection; type: functional; conditions: route intraperitoneal
Streptococcus pneumoniae [12] = experiment: Antibacterial activity against low dose 5 x 10^6 CFU Streptococcus pneumoniae serotype 19 infected in semitherapeutic C57BL/6 mouse model assessed as bacterial count in lung at 6 mg/kg, ip measured after 1 day post infection; type: functional; conditions: route intraperitoneal
Streptococcus pneumoniae [13] = experiment: Antibacterial activity against high dose 1.5 x 10^7 CFU Streptococcus pneumoniae serotype 2 infected in semitherapeutic C57BL/6 mouse model assessed as bacterial count in liver at 6 mg/kg, ip measured after 1 day post infection; type: functional; conditions: route intraperitoneal
Streptococcus pneumoniae [14] = experiment: Antibacterial activity against 1.5 x 10^7 CFU Streptococcus pneumoniae serotype 19 infected in therapeutic C57BL/6 mouse model assessed as survival rate at 6 mg/kg, ip qd beginning at time of infection measured after 6 days post infection; type: functional; conditions: route intraperitoneal
Streptococcus pneumoniae [15] = experiment: Antibacterial activity against high dose 1.5 x 10^7 CFU Streptococcus pneumoniae serotype 2 infected in semitherapeutic C57BL/6 mouse model assessed as reduction of bacteremia at 6 mg/kg, ip measured after 5 day post infection; type: functional, organism-based; design: dose 6 mg/kg
Streptococcus pneumoniae [16] = experiment: Antibacterial activity against high dose 1.5 x 10^7 CFU Streptococcus pneumoniae serotype 2 infected in therapeutic C57BL/6 mouse model assessed as bacterial count in lung at 6 mg/kg, ip measured after 5 day post infection; type: functional; conditions: route intraperitoneal
Streptococcus pneumoniae [17] = experiment: Antibacterial activity against 1.5 x 10^7 CFU Streptococcus pneumoniae serotype 19 infected in therapeutic C57BL/6 mouse model assessed as increase in serum compound level at 6 mg/kg, ip measured on day 3 post infection; type: functional, organism-based; design: dose 6 mg/kg
Streptococcus pneumoniae [18] = experiment: Antibacterial activity against low dose 5 x 10^6 CFU Streptococcus pneumoniae serotype 2 infected in semitherapeutic C57BL/6 mouse model assessed as bacterial count in lung at 6 mg/kg, ip measured after 5 day post infection; type: functional; conditions: route intraperitoneal
Streptococcus pneumoniae [19] = experiment: Antibacterial activity against high dose 1.5 x 10^7 CFU Streptococcus pneumoniae serotype 19 infected in semitherapeutic C57BL/6 mouse model assessed as bacterial count in lung at 6 mg/kg, ip measured after 5 day post infection; type: functional; conditions: route intraperitoneal
Streptococcus pneumoniae [20] = experiment: Antibacterial activity against high dose 1.5 x 10^7 CFU Streptococcus pneumoniae serotype 2 infected in therapeutic C57BL/6 mouse model assessed as bacterial count in blood at 6 mg/kg, ip measured after 4 days post infection; type: functional; conditions: route intraperitoneal
Streptococcus pneumoniae [21] = experiment: Antibacterial activity against high dose 1.5 x 10^7 CFU Streptococcus pneumoniae serotype 19 infected in semitherapeutic C57BL/6 mouse model assessed as reduction of bacteremia at 6 mg/kg, ip measured after 1 day post infection; type: functional, organism-based; design: dose 6 mg/kg
Streptococcus pneumoniae [22] = experiment: Antibacterial activity against low dose 5 x 10^6 CFU Streptococcus pneumoniae serotype 19 infected in semitherapeutic C57BL/6 mouse model assessed as bacterial count in lung at 6 mg/kg, ip measured after 3 days post infection; type: functional; conditions: route intraperitoneal
Streptococcus pneumoniae [23] = experiment: Antibacterial activity against low dose 5 x 10^6 CFU Streptococcus pneumoniae serotype 19 infected in semitherapeutic C57BL/6 mouse model assessed as bacterial count in lung at 6 mg/kg, ip measured after 5 day post infection; type: functional; conditions: route intraperitoneal
Streptococcus pneumoniae [24] = experiment: Antibacterial activity against 1.5 x 10^7 CFU Streptococcus pneumoniae serotype 2 infected in therapeutic C57BL/6 mouse model assessed as survival rate at 20 mg/kg, ip qd beginning 2 days post infection measured after 3 days post infection; type: functional; conditions: route intraperitoneal
Streptococcus pneumoniae [25] = experiment: Antibacterial activity against 5 x 10^6 CFU Streptococcus pneumoniae serotype 2 infected in semitherapeutic C57BL/6 mouse model assessed as bacterial count in liver at 6 mg/kg, ip measured after 1 day post infection; type: functional; conditions: route intraperitoneal
Streptococcus pneumoniae [26] = experiment: Antibacterial activity against high dose 1.5 x 10^7 CFU Streptococcus pneumoniae serotype 2 infected in semitherapeutic C57BL/6 mouse model assessed as bacterial count in blood at 6 mg/kg, ip measured after 2 days post infection; type: functional; conditions: route intraperitoneal
Streptococcus pneumoniae [27] = experiment: Antibacterial activity against high dose 1.5 x 10^7 CFU Streptococcus pneumoniae serotype 19 infected in semitherapeutic C57BL/6 mouse model assessed as bacterial count in lung at 6 mg/kg, ip measured after 3 days post infection; type: functional; conditions: route intraperitoneal
Streptococcus pneumoniae [28] = experiment: Antibacterial activity against high dose 1.5 x 10^7 CFU Streptococcus pneumoniae serotype 2 infected in therapeutic C57BL/6 mouse model assessed as reduction of bacteremia at 6 mg/kg, ip measured after 5 day post infection; type: functional, organism-based; design: dose 6 mg/kg
Streptococcus pneumoniae [29] = experiment: Antibacterial activity against low dose 5 x 10^6 CFU Streptococcus pneumoniae serotype 2 infected in semitherapeutic C57BL/6 mouse model assessed as bacterial count in lung at 6 mg/kg, ip measured after 10 day post infection; type: functional; conditions: route intraperitoneal
Streptococcus pneumoniae [30] = experiment: Antibacterial activity against 1.5 x 10^7 CFU Streptococcus pneumoniae serotype 19 infected in therapeutic C57BL/6 mouse model assessed as increase in compound level in BALF at 6 mg/kg, ip measured on day 3 post infection; type: functional, organism-based; design: dose 6 mg/kg

Q: With `CCCCCCCCCC(=O)N[C@@H](Cc1c[nH]c2ccccc12)C(=O)N[C@H](CC(N)=O)C(=O)N[C@@H](CC(=O)O)C(=O)N[C@@H]1C(=O)NCC(=O)N[C@@H](CCCN)C(=O)N[C@@H](CC(=O)O)C(=O)N[C@H](C)C(=O)N[C@@H](CC(=O)O)C(=O)NCC(=O)N[C@H](CO)C(=O)N[C@@H]([C@H](C)CC(=O)O)C(=O)N[C@@H](CC(=O)c2ccccc2N)C(=O)O[C@@H]1C` as the compound, how does the Activity (Streptococcus pneumoniae [1]) read?
A: Active

Q: What about the log10cfu (Streptococcus pneumoniae [2]) of the same compound?
A: 6.2

Q: What about the Activity (Streptococcus pneumoniae [3]) of the same compound?
A: Active

Q: What about the log10cfu (Streptococcus pneumoniae [4]) of the same compound?
A: 5.5

Q: And the log10cfu (Streptococcus pneumoniae [5])?
A: 2.2

Q: What about the Activity (Streptococcus pneumoniae [6]) of the same compound?
A: Active

Q: And the log10cfu (Streptococcus pneumoniae [7])?
A: 3.5

Q: What about the Activity (Streptococcus pneumoniae [8]) of the same compound?
A: 70%

Q: What about the log10cfu (Streptococcus pneumoniae [9]) of the same compound?
A: 2

Q: What about the Activity (Streptococcus pneumoniae [10]) of the same compound?
A: Active

Q: And the log10cfu (Streptococcus pneumoniae [11])?
A: 2.9

Q: And the log10cfu (Streptococcus pneumoniae [12])?
A: 6.3

Q: And the log10cfu (Streptococcus pneumoniae [13])?
A: 1.2

Q: What about the Activity (Streptococcus pneumoniae [14]) of the same compound?
A: 40%

Q: And the Activity (Streptococcus pneumoniae [15])?
A: Active

Q: And the log10cfu (Streptococcus pneumoniae [16])?
A: 2.8

Q: What about the Activity (Streptococcus pneumoniae [17]) of the same compound?
A: Active

Q: And the log10cfu (Streptococcus pneumoniae [18])?
A: 3.2

Q: And the log10cfu (Streptococcus pneumoniae [19])?
A: 4.7

Q: And the log10cfu (Streptococcus pneumoniae [20])?
A: 2.6

Q: And the Activity (Streptococcus pneumoniae [21])?
A: Active

Q: And the log10cfu (Streptococcus pneumoniae [22])?
A: 5.5

Q: What about the log10cfu (Streptococcus pneumoniae [23]) of the same compound?
A: 3.5

Q: And the Activity (Streptococcus pneumoniae [24])?
A: 60%

Q: And the log10cfu (Streptococcus pneumoniae [25])?
A: 1.8

Q: What about the log10cfu (Streptococcus pneumoniae [26]) of the same compound?
A: 0.1

Q: And the log10cfu (Streptococcus pneumoniae [27])?
A: 7.1

Q: What about the Activity (Streptococcus pneumoniae [28]) of the same compound?
A: Active

Q: And the log10cfu (Streptococcus pneumoniae [29])?
A: 2.5

Q: And the Activity (Streptococcus pneumoniae [30])?
A: Active
